Reference: paper PMC10318456, “Selective inhibitors of the PSEN1–gamma-secretase complex” (The Journal of Biological Chemistry, 2023)
“And” between values parts separate entries of the source, which are not always exact repeats. Identical values can stand only once.

Columns and labels:
Type in all cases: cell-based
[1] = target: T1, PSEN1 I168A–APH1A γ-secretase complex (Homo sapiens, UniProt P49768, I168A); experiment: Aβ40 secretion, MEF cell pool restored with PSEN1 I168A–APH1A; conditions: decimal comma; for IC50: PSEN1 I168A (TM3)–APH1A cell pool, N = 3 to 4, mean (95% CI)
T1 construct: expressed in transfected cells; host or cells: Psen1/2 double KO/Aph1ABC triple KO MEFs, pools without clonal selection
Method: (§1) We turned to experimental site–directed mutagenesis and selected a series of amino acids (Fig. 3) in the entrance channel for mutation to alanine. […] More importantly, they were all enzymatically active as shown by the secretion of Aβ40 in the supernatants of the cell cultures (Fig. 3B).
(§2) Conditional Psen1/2 double KO mice were crossed with conditional Aph1ABC triple KO mice ([29], [52], [58], [59]). At embryonic day 7.5, embryos were dissected and dissociated, and cells were plated in the presence of Dulbecco’s modified Eagle’s medium (DMEM)/F12 50% fetal calf serum (FCS) (Invitrogen). Primary MEFs were immortalized by transduction with LargeT antigen. Psen1/2 double KO/Aph1ABC triple KO MEFs were generated by transduction with a Cre-GFP–expressing adenoviral vector, and GFP-positive MEFs were sorted by fluorescence-activated cell sorting analysis. Psen1/2 Aph1ABC-deficient MEFs were maintained in DMEM/f12 10% FCS. To rescue γ-secretase expression, Psen1/2 double KO/Aph1ABC triple KO MEFs were transduced using Murine Stem Cell Virus retroviral vector system (pMSCV) viral vectors (Clontech) containing the human coding sequences of the different PSEN and APH1 homologs and the zeocin selection marker. An Internal Ribosome Entry Site sequence was cloned between the coding sequences for PSEN and APH1 to ensure co-expression of both proteins. Stable transfected cell lines were selected using 500-μg/ml zeocin (Invitrogen). Four different combinations were made: PSEN1 and APH1AL, PSEN1 and APH1B, PSEN2 and APH1AL, and PSEN2 and APH1B. These cell lines were transduced with pMSCV viral vectors (Clontech) expressing APP-C99-GFP-puromycin. […]
(§3) The number of plated cells and incubation times were determined in respect to linearity of Aβ peptide secretion, the dynamic range of Aβ peptide quantification in the medium, and sensitivity to dimethylsulfoxide (DMSO). […] The cell viability was assessed using the CellTiter-Glo Luminescent assay (Promega) that measures ATP production. […] We however measured five compounds at the Leuven site and noticed that absolute IC50 values were different (Fig. S2). […]

[2] = target: T2, PSEN1 L150A–APH1A γ-secretase complex (Homo sapiens, UniProt P49768, L150A); experiment: Aβ40 secretion, MEF cell pool restored with PSEN1 L150A–APH1A; conditions: decimal comma; for IC50: PSEN1 L150A (TM2)–APH1A cell pool, N = 3 to 4, mean (95% CI)
T2 construct: expressed in transfected cells; host or cells: Psen1/2 double KO/Aph1ABC triple KO MEFs, pools without clonal selection
Method: as §1, §2, §3

[3] = target: T3, PSEN1 F388A–APH1A γ-secretase complex (Homo sapiens, UniProt P49768, F388A); experiment: Aβ40 secretion, MEF cell pool restored with PSEN1 F388A–APH1A; conditions: decimal comma; for IC50: PSEN1 F388A (TM7)–APH1A cell pool, N = 3 to 4, mean (95% CI)
T3 construct: expressed in transfected cells; host or cells: Psen1/2 double KO/Aph1ABC triple KO MEFs, pools without clonal selection
Method: as §1, §2, §3

[4] = target: T4, PSEN1 M146A–APH1A γ-secretase complex (Homo sapiens, UniProt P49768, M146A); experiment: Aβ40 secretion, MEF cell pool restored with PSEN1 M146A–APH1A; conditions: decimal comma; for IC50: PSEN1 M146A (TM2)–APH1A cell pool, N = 3 to 4, mean (95% CI); for IC50 fold change to WT: PSEN1 M146A–APH1A cell pool
T4 construct: expressed in transfected cells; host or cells: Psen1/2 double KO/Aph1ABC triple KO MEFs, pools without clonal selection
Method: as §1
(§4) Conditional Psen1/2 double KO mice were crossed with conditional Aph1ABC triple KO mice ([29], [52], [58], [59]). At embryonic day 7.5, embryos were dissected and dissociated, and cells were plated in the presence of Dulbecco’s modified Eagle’s medium (DMEM)/F12 50% fetal calf serum (FCS) (Invitrogen). Primary MEFs were immortalized by transduction with LargeT antigen. Psen1/2 double KO/Aph1ABC triple KO MEFs were generated by transduction with a Cre-GFP–expressing adenoviral vector, and GFP-positive MEFs were sorted by fluorescence-activated cell sorting analysis. Psen1/2 Aph1ABC-deficient MEFs were maintained in DMEM/f12 10% FCS. To rescue γ-secretase expression, Psen1/2 double KO/Aph1ABC triple KO MEFs were transduced using Murine Stem Cell Virus retroviral vector system (pMSCV) viral vectors (Clontech) containing the human coding sequences of the different PSEN and APH1 homologs and the zeocin selection marker. An Internal Ribosome Entry Site sequence was cloned between the coding sequences for PSEN and APH1 to ensure co-expression of both proteins. Stable transfected cell lines were selected using 500-μg/ml zeocin (Invitrogen). Four different combinations were made: PSEN1 and APH1AL, PSEN1 and APH1B, PSEN2 and APH1AL, and PSEN2 and APH1B. These cell lines were transduced with pMSCV viral vectors (Clontech) expressing APP-C99-GFP-puromycin. After puromycin selection (5 μg/ml), GFP-positive cells were selected through FACS sorting. For the alanine mutagenesis experiment, pMSCV PSEN1-APH1A viral vectors were generated by using a long PCR-based QuikChange strategy (Stratagene). Stable cell lines without clonal selection were generated for each mutant as described above. All cell lines were regularly tested for the absence of mycoplasma and used for maximum 20 passages in culture.
as §3, with “(DMSO). […] MEF cells were plated in DMEM F12 supplemented with 10% FCS at 10,000 cells per well in 96-well clear bottom plates in the late afternoon and cultured for 16 h at 37 °C, 5% CO2.” for “(DMSO).”

[5] = target: T5, PSEN1 L172A–APH1A γ-secretase complex (Homo sapiens, UniProt P49768, L172A); experiment: Aβ40 secretion, MEF cell pool restored with PSEN1 L172A–APH1A; conditions: for increase in binding affinity by alanine substitution of L172: PSEN1 L172A versus WT
T5 construct: expressed in transfected cells; host or cells: Psen1/2 double KO/Aph1ABC triple KO MEFs, pools without clonal selection
Method: as §1, §4
(§5) The number of plated cells and incubation times were determined in respect to linearity of Aβ peptide secretion, the dynamic range of Aβ peptide quantification in the medium, and sensitivity to dimethylsulfoxide (DMSO). […] MEF cells were plated in DMEM F12 supplemented with 10% FCS at 10,000 cells per well in 96-well clear bottom plates in the late afternoon and cultured for 16 h at 37 °C, 5% CO2. In the morning of the second day, the medium was replaced with 60 μl of DMEM/F12 supplemented with 2% FCS, and GSI or DMSO (controls) were added. Compounds were tested in serial dilutions with concentrations ranging from […] to 0.1 nM with 3-fold changes. The final concentration of DMSO in all wells was 0.2%. Plates were put in the incubator again at 37 °C, 5% CO2. After 8 h, the culture media were collected, and 30 μl was used to measure Aβ40 peptides. The cell viability was assessed using the CellTiter-Glo Luminescent assay (Promega) that measures ATP production. All screens were performed at one site, and reported IC50 values throughout the manuscript are from this site (Beerse) unless otherwise indicated. We however measured five compounds at the Leuven site and noticed that absolute IC50 values were different (Fig. S2). The main goal of the current work is to explore the basis for inhibitor selectivity for different γ-secretases, and selectivity was consistent in the assays at the two sites (Fig. S2).
(§6) Standard 96-well SECTOR plates (MSD) were coated with 1.5 μg/ml anti-Aβ JRFcAβ40/28 capture antibody in a final volume of 50 μl of PBS 0.05% Tween 20. After overnight incubation at 4 °C, the plates were five times rinsed with PBS 0.05% Tween 20 and blocked with 150 μl per well of casein buffer (PBS with 1% casein, pH 7.4) for 4 h at room temperature. Standards (synthetic human Aβ 1–40) were diluted in culture media. […]

[6] = target: T6, PSEN1 I229A–APH1A γ-secretase complex (Homo sapiens, UniProt P49768, I229A); experiment: Aβ40 secretion, MEF cell pool restored with PSEN1 I229A–APH1A; conditions: decimal comma; for IC50: PSEN1 I229A (TM5)–APH1A cell pool, N = 3 to 4, mean (95% CI); for IC50 fold change to WT: PSEN1 I229A–APH1A cell pool
T6 construct: expressed in transfected cells; host or cells: Psen1/2 double KO/Aph1ABC triple KO MEFs, pools without clonal selection
Method: as §1, §4
as §3, with “(DMSO). […] MEF cells were plated in DMEM F12 supplemented with 10% FCS at 10,000 cells per well in 96-well clear bottom plates in the late afternoon and cultured for 16 h at 37 °C, 5% CO2.” for “(DMSO).”

[7] = target: T7, PSEN1 L173A–APH1A γ-secretase complex (Homo sapiens, UniProt P49768, L173A); experiment: Aβ40 secretion, MEF cell pool restored with PSEN1 L173A–APH1A; conditions: decimal comma; for IC50: PSEN1 L173A (TM3)–APH1A cell pool, N = 3 to 4, mean (95% CI)
T7 construct: expressed in transfected cells; host or cells: Psen1/2 double KO/Aph1ABC triple KO MEFs, pools without clonal selection
Method: as §1, §2, §3

[8] = target: T8, PSEN1 I387A–APH1A γ-secretase complex (Homo sapiens, UniProt P49768, I387A); experiment: Aβ40 secretion, MEF cell pool restored with PSEN1 I387A–APH1A; conditions: decimal comma; for IC50: PSEN1 I387A (TM7)–APH1A cell pool, N = 3 to 4, mean (95% CI)
T8 construct: expressed in transfected cells; host or cells: Psen1/2 double KO/Aph1ABC triple KO MEFs, pools without clonal selection
Method: as §1, §2, §3

[9] = target: T9, PSEN1 WT–APH1A γ-secretase complex (Homo sapiens, UniProt P49768); experiment: Aβ40 secretion, MEF cell pool restored with PSEN1 WT–APH1A; conditions: decimal comma; for IC50 fold change to WT: PSEN1 WT–APH1A cell pool (reference); for IC50: PSEN1 WT–APH1A cell pool, N = 3 to 4, mean (95% CI)
T9 construct: expressed in transfected cells; host or cells: Psen1/2 double KO/Aph1ABC triple KO MEFs
Method: as §1, §4, §5, §6

IC50 [1] [µM] | IC50 [2] [µM] | IC50 fold change to WT ([2]; PSEN1 L150A–APH1A cell pool) | IC50 [3] [µM] | IC50 fold change to WT ([3]; PSEN1 F388A–APH1A cell pool) | IC50 [4] [µM] | IC50 fold change to WT [4] | IC50 ([5]; PSEN1 L172A (TM3)–APH1A cell pool, N = 3 to 4, mean (95% CI), decimal comma) [µM] | increase in binding affinity by alanine substitution of L172 [5] [fold] | IC50 [6] [µM] | IC50 fold change to WT [6] | IC50 [7] [µM] | IC50 [8] [µM] | IC50 fold change to WT ([8]; PSEN1 I387A–APH1A cell pool) | IC50 fold change to WT [9] [fold] | IC50 [9] [µM] | IC50 fold change to WT ([1]; PSEN1 I168A–APH1A cell pool) | IC50 fold change to WT ([7]; PSEN1 L173A–APH1A cell pool) | Compound
0.043 | 0.879 | 5,207 fold and > 3 fold | 0.277 | 1,642 fold | 0.234 | 1,386 fold | 0.0036 | 47 | 0.334 | 1,980 fold | 0.028 | 0.882 | 5,225 fold and > 3 fold | 1 | 0.169 |  |  | C[C@H](NC(=O)Cc1cc(F)cc(F)c1)C(=O)N[C@H](C(=O)OC(C)(C)C)c1ccccc1 [DAPT]
0.015 | 1.09 |  | 0.403 |  | 0.031 | 1,076 fold |  | 3.1 | 0.042 | 1,440 fold | 0.077 | 0.283 |  | 1 | 0.029 | 0,511 fold | 2,658 fold | O=S(=O)(c1ccc(Cl)cc1)N1[C@H]2CC[C@@H]([C@H]1c1ccc(C(F)(F)F)cc1)[C@@H](O)C2 [(+)-9b]
